Several values for one entry are separate records, joined by “and”; a condition that tells them apart may be missing. Equal values may be shown once.
Molecular target: T1, CETP (Homo sapiens, UniProt P11597)
T1 construct: from tissue; host or cells: human plasma from normal volunteers
T1 sequence (P11597 18-493): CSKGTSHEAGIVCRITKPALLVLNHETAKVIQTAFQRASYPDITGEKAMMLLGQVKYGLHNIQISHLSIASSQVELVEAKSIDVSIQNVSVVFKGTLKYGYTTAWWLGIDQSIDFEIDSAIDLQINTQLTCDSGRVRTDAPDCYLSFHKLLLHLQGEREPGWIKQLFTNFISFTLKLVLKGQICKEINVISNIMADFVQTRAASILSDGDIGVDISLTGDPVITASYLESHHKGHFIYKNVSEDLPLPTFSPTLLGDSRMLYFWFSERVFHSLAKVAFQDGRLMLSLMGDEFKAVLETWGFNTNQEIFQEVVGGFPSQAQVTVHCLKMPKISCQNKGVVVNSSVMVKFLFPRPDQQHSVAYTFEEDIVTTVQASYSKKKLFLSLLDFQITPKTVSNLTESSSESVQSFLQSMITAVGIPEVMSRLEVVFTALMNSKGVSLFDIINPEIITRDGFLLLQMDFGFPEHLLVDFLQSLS
Experiment: CETP in vitro assay ([3H]CE-HDL transfer, Amersham kit TRKQ7005; modified protocol in human plasma)
Assay type: biochemical
Conditions: multiple values = multiple measurements; for % Inhibition @ 1 μM / inhibition at 1 µM: 1 μM compound
Protocol: The CETP inhibitory activity of the compounds was determined using a commercially available kit from Amersham Biosciences (Catalog #TRKQ7005).
For the measurement of inhibitory activity in human plasma, a modified protocol (Connolly, D. T. et al., Biochemistry, 39 13870-13879, 2000) was used. Briefly, 80 μl of human plasma (obtained from normal volunteers), approximately 25 μg/ml (200) of [^3H]CE-HDL (Amersham Biosciences from kit TRKQ7005) and 1 μl of compound dissolved in DMSO was incubated for at least 4 hrs at 37° C. and non-specific transfer was determined by incubating a corresponding plate at 4° C. (blank). After the incubation period, 100 of a solution of 1% Dextralip 50/0.5M MgCl2, pH 7.4 was added, vortexed and incubated at room temperature for 10 min. The plate was then centrifuged for 30 min at 10° C. at 3000 rpm in a Sorvall RT6000B centrifuge. Fifty microliters of the supernatant was transferred to a Picoplate (Packard) containing 100 μl of Microscint 40 (Perkin Elmer) and mixed for 30 min using a plate mixer. The radioactivity was counted using a TopCount (Perkin Elmer) and the % control was determined in the samples using the following formula: % transfer relative to vehicle controls (% control)=[cpm blank-cpm test]/cpm blank/cpm control]×100. IC50s were calculated from plots of the % control versus compound concentration.
A variety of example compounds have been made and tested, with a range of in vitro results. Below, in Table 2, are representative compounds and the corresponding data; in some cases, where multiple IC50's are shown, multiple measurements were taken. Naturally, different compounds in Formula (I), (Ia), (Ib) and (Ic) may have not activities identical to any one compound below.

| Structure (SMILES) | % Inhibition @ 1 μM | IC50 | inhibition at 1 µM [%] |
| --- | --- | --- | --- |
| OC(CN1c2cccc(-c3cc(F)cc(F)c3)c2OCC1c1cccc(OC(F)(F)C(F)F)c1)C(F)(F)F (single isomer, unassigned) [Compound 64, 3-{8-(3,5-Difluoro-phenyl)-3-[3-(1,1,2,2-tetrafluoro-ethoxy)-phenyl]-2,3-dihydro-benzo[1,4]oxazin-4-yl}-1,1,1-trifluoro-propan-2-ol] | 121% and 101% and 119% | 0.1 µM and 0.117 µM |  |
| OC(CN1c2cccc(-c3cc(F)cc(F)c3)c2OCC1c1cccc(OC(F)(F)C(F)F)c1)C(F)(F)F (single isomer, unassigned) [Compound 65, 3-{8-(3,5-Difluoro-phenyl)-3-[3-(1,1,2,2-tetrafluoro-ethoxy)-phenyl]-2,3-dihydro-benzo[1,4]oxazin-4-yl}-1,1,1-trifluoro-propan-2-ol] | 86% and 76% | 0.99 µM |  |
| OC(CN1c2cccc(-c3cccc(F)c3)c2OCC1c1cccc(OC(F)(F)C(F)F)c1)C(F)(F)F (single isomer, unassigned) [Compound 66, 1,1,1-Trifluoro-3-{8-(3-fluoro-phenyl)-3-[3-(1,1,2,2-tetrafluoro-ethoxy)-phenyl]-2,3-dihydro-benzo[1,4]oxazin-4-yl}-propan-2-ol] | 104% and 79% and 107% |  |  |
| OC(CN1c2cccc(-c3cccc(F)c3)c2OCC1c1cccc(OC(F)(F)C(F)F)c1)C(F)(F)F (single isomer, unassigned) [Compound 67, 1,1,1-Trifluoro-3-{8-(3-fluoro-phenyl)-3-[3-(1,1,2,2-tetrafluoro-ethoxy)-phenyl]-2,3-dihydro-benzo[1,4]oxazin-4-yl}-propan-2-ol] | 97% and 83% | 0.78 µM |  |
| OC(CN1c2cccc(-c3cccc(OC(F)(F)F)c3)c2OCC1c1ccc2c(c1)OC(F)(F)O2)C(F)(F)F (centres unmarked) [Compound 13, 3-[3-(2,2-Difluoro-benzo[1,3]dioxol-5-yl)-8-(3-trifluoromethoxy-phenyl)-2,3-dihydro-benzo[1,4]oxazin-4-yl]-1,1,1-trifluoro-propan-2-ol] |  | 0.104 µM and 0.437 µM | 48 |
| OC(CN1c2cccc(-c3cccc(OC(F)(F)F)c3)c2OCC1c1cccc(SC(F)(F)F)c1)C(F)(F)F (centres unmarked) [Compound 15] | 67% and 69% | 0.36 µM |  |
| OC(CN1c2cccc(-c3cccc(OC(F)(F)F)c3)c2OCC1c1cccc(SC(F)(F)F)c1)C(F)(F)F (centres unmarked) [Compound 16, 1,1,1-Trifluoro-3-[8-(3-trifluoromethoxy-phenyl)-3-(3-trifluoromethylsulfanyl-phenyl)-2,3-dihydro-benzo[1,4]oxazin-4-yl]-propan-2-ol] | 20% |  |  |
| CCOc1cccc(C2COc3c(-c4cccc(OC(F)(F)F)c4)cccc3N2CC(O)C(F)(F)F)c1 (centres unmarked) [Compound 17, 3-[3-(3-Ethoxy-phenyl)-8-(3-trifluoromethoxy-phenyl)-2,3-dihydro-benzo[1,4]oxazin-4-yl]-1,1,1-trifluoro-propan-2-ol] | 55% and 56% | 0.49 µM |  |
| CCOc1cccc(C2COc3c(-c4cccc(OC(F)(F)F)c4)cccc3N2CC(O)C(F)(F)F)c1 (centres unmarked) [Compound 18] | 8% |  |  |
| O=C(CN1c2cccc(-c3cccc(OC(F)(F)F)c3)c2OCC1c1ccc2c(c1)OC(F)(F)O2)C(F)(F)F (centres unmarked) [Compound 19, 3-[3-(2,2-Difluoro-benzo[1,3]dioxol-5-yl)-8-(3-trifluoromethoxy-phenyl)-2,3-dihydro-benzo[1,4]oxazin-4-yl]-1,1,1-trifluoro-propan-2-one] |  |  | 0 |
| COC(=O)N1c2cccc(-c3cccc(OC(F)(F)F)c3)c2OCC1c1cccc(OC(F)(F)C(F)F)c1 (centres unmarked) [Compound 20, 3-[3-(1,1,2,2-Tetrafluoro-ethoxy)-phenyl]-8-(3-trifluoromethoxy-phenyl)-2,3-dihydro-benzo[1,4]oxazine-4-carboxylic acid methyl ester] |  |  | 16 |

Continued, values first:

| % Inhibition @ 1 μM | IC50 | inhibition at 1 µM [%] | Structure (SMILES) |
| --- | --- | --- | --- |
| 96% | 0.052 µM and 0.038 µM |  | OC(CN1c2cccc(-c3cccc(OC(F)(F)F)c3)c2OCC1c1cccc(OC(F)(F)C(F)F)c1)C(F)(F)F (single isomer, unassigned) [Compound 1, 1,1,1-Trifluoro-3-[3-[3-(1,1,2,2-tetrafluoro-ethoxy)-phenyl]-8-(3-trifluoromethoxy-phenyl)-2,3-dihydro-benzo[1,4]oxazin-4-yl]-propan-2-ol] |
| 73% | 0.276 µM and 0.131 µM |  | OC(CN1c2cccc(-c3cccc(OC(F)(F)F)c3)c2OCC1c1cccc(OC(F)(F)C(F)F)c1)C(F)(F)F (single isomer, unassigned) [Compound 2, 1,1,1-Trifluoro-3-[3-[3-(1,1,2,2-tetrafluoro-ethoxy)-phenyl]-8-(3-trifluoromethoxy-phenyl)-2,3-dihydro-benzo[1,4]oxazin-4-yl]-propan-2-ol] |
|  | 0.014 µM | 77 | OC(CF)CN1c2cccc(-c3cccc(OC(F)(F)F)c3)c2OC[C@@H]1c1cccc(OC(F)(F)C(F)F)c1 (stereo in doubt) [Compound 74, 4H-1,4-Benzoxazine-4-ethanol, 2,3-dihydro-α-fluoromethyl-3-[3-(1,1,2,2-tetrafluoroethoxy)phenyl]-8-[3-(trifluoromethoxy)phenyl]-, (3S,αR)—] |
|  | 0.147 µM | 55 | OC(CF)CN1c2cccc(-c3cccc(OC(F)(F)F)c3)c2OC[C@@H]1c1cccc(OC(F)(F)C(F)F)c1 (stereo in doubt) [Compound 75, 4H-1,4-Benzoxazine-4-ethanol, 2,3-dihydro-α-fluoromethyl-3-[3-(1,1,2,2-tetrafluoroethoxy)phenyl]-8-[3-(trifluoromethoxy)phenyl]-, (3S,αS)—] |
|  |  | 26 | O[C@H](CN1c2cccc(-c3cccc(OC(F)(F)F)c3)c2OC[C@@H]1c1cccc(OC(F)(F)C(F)F)c1)C(F)(F)F [Compound 4, 4H-1,4-Benzoxazine-4-ethanol, 2,3-dihydro-3-[3-(1,1,2,2-tetrafluoroethoxy)phenyl]-8-[3-(trifluoromethoxy)phenyl]-α-(trifluoromethyl)-, (3S,αR)—] |
|  |  | 23 | O[C@H](CN1c2cccc(-c3cccc(OC(F)(F)F)c3)c2OC[C@H]1c1cccc(OC(F)(F)C(F)F)c1)C(F)(F)F [Compound 5, 4H-1,4-Benzoxazine-4-ethanol, 2,3-dihydro-3-[3-(1,1,2,2-tetrafluoroethoxy)phenyl]-8-[3-(trifluoromethoxy)phenyl]-α-(trifluoromethyl)-, (3R,αR)—] |
|  |  | 14 | O[C@@H](CN1c2cccc(-c3cccc(OC(F)(F)F)c3)c2OC[C@H]1c1cccc(OC(F)(F)C(F)F)c1)C(F)(F)F [Compound 6, 4H-1,4-Benzoxazine-4-ethanol, 2,3-dihydro-3-[3-(1,1,2,2-tetrafluoroethoxy)phenyl]-8-[3-(trifluoromethoxy)phenyl]-α-(trifluoromethyl)-, (3R,αS)—] |
| 64% and 66% | 0.104 µM and 0.11 µM |  | OC(CN1c2cccc(-c3cccc(OC(F)(F)F)c3)c2OCC1c1cccc(OC(F)(F)F)c1)C(F)(F)F (centres unmarked) [Compound 7, 3-[3,8-Bis-(3-trifluoromethoxy-phenyl)-2,3-dihydro-benzo[1,4]oxazin-4-yl]-1,1,1-trifluoro-propan-2-ol] |
| 21% |  |  | OC(CN1c2cccc(-c3cccc(OC(F)(F)F)c3)c2OCC1c1cccc(OC(F)(F)F)c1)C(F)(F)F (centres unmarked) [Compound 8, 3-[3,8-Bis-(3-trifluoromethoxy-phenyl)-2,3-dihydro-benzo[1,4]oxazin-4-yl]-1,1,1-trifluoro-propan-2-ol] |
| 72% and 67% | 0.071 µM and 0.195 µM | 68 | O[C@@H](CN1c2cccc(-c3cccc(OC(F)(F)F)c3)c2OC[C@@H]1c1cccc(OC(F)(F)F)c1)C(F)(F)F [Compound 9, 4H-1,4-Benzoxazine-4-ethanol, 2,3-dihydro-3,8-bis[3-(trifluoromethoxy)phenyl]-α-(trifluoromethyl)-, (3S,αS)—] |
|  |  | 23 | O[C@H](CN1c2cccc(-c3cccc(OC(F)(F)F)c3)c2OC[C@@H]1c1cccc(OC(F)(F)F)c1)C(F)(F)F [Compound 10, 4H-1,4-Benzoxazine-4-ethanol, 2,3-dihydro-3,8-bis[3-(trifluoromethoxy)phenyl]-α-(trifluoromethyl)-, (3S,αR)—] |
